Like-named read-outs stand apart in the source and are kept apart here. One block for each molecule: values may come before it.
Columns and labels:
[1] = test system: CLA (control) Monolayer, LLC-PK1 cells; settings: 10 μM in donor
[2] = biological target: human PGP membranes (PGP-associated ATPase) (Homo sapiens, UniProt P08183); settings: for ATPase Activity: orthovanadate-sensitive; for ATPase Activity, basal activity subtracted: human, 20 min
Protocol: The DMSO concentration (1.0%) was constant for all conditions within the experiment.
The test substances were incubated in the PGP membranes and supplemented with MgATP, with and without sodium orthovanadate present. Orthovanadate inhibits PGP by trapping MgADP in the nucleotide binding site. Thus, the ATPase activity measured in the presence of orthovanadate represents non-PGP ATPase activity and was subtracted from the activity generated without orthovanadate to yield ATPase activity.
(§1) ATPase assays were conducted in 96-well microtiter plates. A 0.06 mL reaction mixture containing 40 μg PGP membranes, test substance, and 4 mM MgATP, in buffer containing 50 mM Tris-MES, 2 mM EGTA, 50 mM KCl, 2 mM dithiothreitol, and 5 mM sodium azide, plus organic solvent was incubated at 37° C. for 20 minutes. […] Identical reaction mixtures containing 100 μM sodium orthovanadate were assayed in parallel. The reactions were stopped by the addition of 30 μl of 10% SDS+Antifoam A. The incubations were followed with addition of 200 μl of 35 mM Ammonium Molybdate in 15 mM Zinc Acetate: 10% Ascorbic Acid (1:4) and incubated for an additional 20 minutes at 37° C. Additionally, 0.06 mL aliquots of potassium phosphate standards prepared in the buffer described above, were incubated in the plates containing the test and control substances, with SDS and detection reagent added. The liberation of inorganic phosphate was detected by its absorbance at 800 nm and quantitated by comparing the absorbance to a phosphate standard curve. The concentration dependence of the PGP was analyzed for evidence of saturation of PGP-associated ATPase activity, and apparent kinetic parameters were calculated by non-linear regression.
as §1, with “plates.” for “plates. A 0.06 mL reaction mixture containing 40 μg PGP membranes, test substance, and 4 mM MgATP, in buffer containing 50 mM Tris-MES, 2 mM EGTA, 50 mM KCl, 2 mM dithiothreitol, and 5 mM sodium azide, plus organic solvent was incubated at 37° C. for 20 minutes.”, “activity.” for “activity, and apparent kinetic parameters were calculated by non-linear regression.”
as §1, with “plates.” for “plates. A 0.06 mL reaction mixture containing 40 μg PGP membranes, test substance, and 4 mM MgATP, in buffer containing 50 mM Tris-MES, 2 mM EGTA, 50 mM KCl, 2 mM dithiothreitol, and 5 mM sodium azide, plus organic solvent was incubated at 37° C. for 20 minutes.”

[3] = biological target: T1, human PGP (Homo sapiens, UniProt P08183); test: Inhibition of human PGP-mediated [3H]-digoxin transport in 15B-J (LLC-PK1 expressing human PGP) monolayers
[4] = biological target: human PGP (P-glycoprotein) (Homo sapiens, UniProt P08183); test: as above; settings: human, pH 7.2, Ketoconazole Normalized % Inhibition of Digoxin Transport, normalized to 25 μM ketoconazole
[5] = biological target: T1, human PGP; settings: 15B-J vs CLA monolayers

human PGP (P-glycoprotein), sequence (P08183 whole entry): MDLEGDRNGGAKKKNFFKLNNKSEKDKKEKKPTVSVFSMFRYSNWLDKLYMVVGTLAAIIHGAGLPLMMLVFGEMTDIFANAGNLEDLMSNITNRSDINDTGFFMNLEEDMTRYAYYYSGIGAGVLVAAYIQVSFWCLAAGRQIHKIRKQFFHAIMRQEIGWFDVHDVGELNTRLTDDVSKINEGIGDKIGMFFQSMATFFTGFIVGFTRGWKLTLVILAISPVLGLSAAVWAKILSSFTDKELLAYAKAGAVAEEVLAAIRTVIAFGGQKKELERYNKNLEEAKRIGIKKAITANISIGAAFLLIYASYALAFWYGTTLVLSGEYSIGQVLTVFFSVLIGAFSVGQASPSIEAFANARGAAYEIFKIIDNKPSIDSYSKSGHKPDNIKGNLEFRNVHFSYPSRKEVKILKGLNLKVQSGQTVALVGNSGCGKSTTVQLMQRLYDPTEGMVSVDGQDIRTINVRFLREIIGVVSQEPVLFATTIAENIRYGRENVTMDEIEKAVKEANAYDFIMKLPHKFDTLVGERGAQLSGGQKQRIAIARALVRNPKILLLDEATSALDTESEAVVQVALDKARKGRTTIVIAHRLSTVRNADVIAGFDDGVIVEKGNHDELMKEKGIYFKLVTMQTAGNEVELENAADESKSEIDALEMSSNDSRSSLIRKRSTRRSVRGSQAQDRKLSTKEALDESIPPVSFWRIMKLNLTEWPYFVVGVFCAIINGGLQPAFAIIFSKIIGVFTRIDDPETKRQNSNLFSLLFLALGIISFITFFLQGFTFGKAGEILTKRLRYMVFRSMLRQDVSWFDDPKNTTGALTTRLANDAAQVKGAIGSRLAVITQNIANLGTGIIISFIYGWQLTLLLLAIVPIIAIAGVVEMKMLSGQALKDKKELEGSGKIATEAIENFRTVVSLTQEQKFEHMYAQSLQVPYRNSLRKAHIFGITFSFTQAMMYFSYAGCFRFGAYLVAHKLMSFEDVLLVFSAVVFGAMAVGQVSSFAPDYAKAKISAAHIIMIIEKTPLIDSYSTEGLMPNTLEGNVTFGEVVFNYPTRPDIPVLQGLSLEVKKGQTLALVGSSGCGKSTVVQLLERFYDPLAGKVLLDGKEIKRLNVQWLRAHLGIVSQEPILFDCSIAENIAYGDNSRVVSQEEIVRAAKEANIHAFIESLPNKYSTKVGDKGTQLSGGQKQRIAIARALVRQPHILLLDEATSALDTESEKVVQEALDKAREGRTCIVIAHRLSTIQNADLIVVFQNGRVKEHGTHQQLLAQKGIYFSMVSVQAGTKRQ
T1 sequence (P08183 whole entry): as above
human PGP membranes (PGP-associated ATPase), sequence (P08183 whole entry): as above

pmoles in Receiver ([1]; A→B, 15 min): 8.4 pmol | pmoles in Receiver ([1]; A→B, 30 min): 2.76 pmol | pmoles in Receiver ([1]; A→B, 60 min): 1.6 pmol | pmoles in Receiver ([1]; A→B, 90 min): 2.0 pmol | pmoles in Receiver ([1]; A→B, 120 min): 1.7 pmol | pmoles in Receiver ([1]; B→A, 15 min): 1.0 pmol | pmoles in Receiver ([1]; B→A, 30 min): 0.86 pmol | pmoles in Receiver ([1]; B→A, 60 min): 0.7 pmol | pmoles in Receiver ([1]; B→A, 90 min): 0.9 pmol | pmoles in Receiver ([1]; B→A, 120 min): 1.9 pmol
SMILES: Cc1ccc(NC(=O)c2ccc(CN3CCNCC3)cc2)cc1Nc1nccc(-c2cccnc2)n1 [Gleevec metabolite]

SMILES: C=CCN1CC[C@]23c4c5ccc(O)c4O[C@H]2C(=O)CC[C@@]3(O)[C@H]1C5 [Naloxone, naloxone]
ATPase Activity ([2]; 0.001 μM test substance): -3.8 nmol/mg/min | ATPase Activity ([2]; 0.01 μM test substance): -0.8 nmol/mg/min | ATPase Activity ([2]; 0.03 μM test substance): 0.7 nmol/mg/min | ATPase Activity ([2]; 0.1 μM test substance): 3.6 nmol/mg/min | ATPase Activity ([2]; 0.3 μM test substance): -0.6 nmol/mg/min | ATPase Activity ([2]; 1.0 μM test substance): 0.4 nmol/mg/min | ATPase Activity ([2]; 3.0 μM test substance): 1.7 nmol/mg/min | ATPase Activity ([2]; 10 μM test substance): 2 nmol/mg/min | ATPase Activity ([2]; 30 μM test substance): 1.9 nmol/mg/min | ATPase Activity ([2]; 100 μM test substance): 1.8 nmol/mg/min | effect on PGP-associated ATPase activity (in words) ([2]; semi-quantitative assay): not to limit the ATPase activity | inhibition of PGP-mediated digoxin transport (in words) ([3]; 5 μM [3H]-digoxin, 15B-J monolayers): the inhibition was not concentration-dependent | Activity 2 ([3]; high capacity, low affinity binding site): 30 µM | Activity 1 ([3]; low capacity, high affinity binding site): 1.0 nM | inhibition at 90 min, 0.0001 μM ([4]; 0.0001 μM test substance): 6.2% | inhibition at 90 min, 0.0003 μM ([4]; 0.0003 μM test substance): 8.4% | inhibition at 90 min, 0.001 μM ([4]; 0.001 μM test substance): 10% | inhibition at 90 min, 0.01 μM ([4]; 0.01 μM test substance): -4.5% | inhibition at 90 min, 0.03 μM ([4]; 0.03 μM test substance): 5.7% | inhibition at 90 min, 0.1 μM ([4]; 0.1 μM test substance): -2.7% | inhibition at 90 min, 1 μM ([4]; 1.0 μM test substance): 7.8% | inhibition at 90 min, 3 μM ([4]; 3.0 μM test substance): -11% | inhibition at 90 min, 10 μM ([4]; 10 μM test substance): 0.4% | inhibition at 90 min, 30 μM ([4]; 30 μM test substance): 41% | inhibition at 90 min, 100 μM ([4]; 100 μM test substance): 37%

ATPase Activity, basal activity subtracted ([2]; 0.007 μM): -0.3 nmol/mg/min | ATPase Activity, basal activity subtracted ([2]; 0.01 μM): -0.4 nmol/mg/min | ATPase Activity, basal activity subtracted ([2]; 0.03 μM): -0.9 nmol/mg/min | ATPase Activity, basal activity subtracted ([2]; 0.05 μM): -0.9 nmol/mg/min | ATPase Activity, basal activity subtracted ([2]; 0.1 μM): -1.6 nmol/mg/min | ATPase Activity, basal activity subtracted ([2]; 0.42 μM): 2.5 nmol/mg/min | ATPase Activity, basal activity subtracted ([2]; 1.67 μM): 11.1 nmol/mg/min | ATPase Activity, basal activity subtracted ([2]; 3.33 μM): 12.8 nmol/mg/min | ATPase Activity, basal activity subtracted ([2]; 6.67 μM): 14.4 nmol/mg/min | transport by human PGP (in words) [5]: significantly transported by human PGP
SMILES: CC(=O)O[C@H]1C(=O)[C@@]2(C)[C@H]([C@H](OC(=O)c3ccccc3)[C@]3(O)C[C@H](OC(=O)[C@H](O)[C@@H](NC(=O)c4ccccc4)c4ccccc4)C(C)=C1C3(C)C)[C@]1(OC(C)=O)CO[C@@H]1C[C@@H]2O [Taxol, taxol]
effect on PGP-associated ATPase activity (in words) [2]: stimulates PGP-associated ATPase activity in a dose dependent manner
